Measured values as given in publication PMC7558535, “In Vitro Metabolism of DWP16001, a Novel Sodium-Glucose Cotransporter 2 Inhibitor, in Human and Animal Hepatocytes” (Pharmaceutics, 2020).

How the values were obtained:
Type in all cases: in vitro ADME
human liver microsomes = assay: Enzyme kinetics of metabolite formation in human liver microsomes
Method: (§1) To calculate the enzyme kinetic parameters for the M1 and M2 formation from DWP16001, DWP16001 (final concentrations, 1–200 μM) was incubated with NADPH-generating system, pooled human liver microsomes (0.25 mg/mL), or human cDNA-expressed CYP3A4 or CYP2C19 supersomes (10 pmol) at 37 °C for 30 min in triplicate. Reactions were stopped by addition of 400 μL of ice-cold ketoconazole (200 ng/mL) in acetonitrile. Following vortex-mixing and centrifugation (15,000× g, 8 min, 4 °C), 75 μL aliquots of the supernatant were diluted with 75 µL of 30% acetonitrile; 5 μL aliquots were injected into an LC−MS/MS system.
(§2) Apparent kinetic parameters (Km, Vmax and n) for the formation of M1, M2, and M3 from DWP16001 by human liver microsomes, CYP3A4, or CYP2C19 were calculated as follows: the unweighted formation rates of M1, M2, and M3 over a range of DWP16001 concentrations were fitted to the Hill equation model [V = Vmax × S^n/(Km^n + S^n)] or the single enzyme model [V = Vmax × S/(Km + S)] using Enzyme Kinetics software (version 1.1 SPSS Inc., Chicago, IL, USA). In the above equations, V means the reaction velocity of the formation of M1, M2, and M3 at given concentration [S] of DWP16001, Vmax means the maximum reaction velocity, n means the Hill constant, and Km means the DWP16001 concentration at which the reaction velocity is 50% of Vmax.

CYP2C19 = target: T1, CYP2C19 (Homo sapiens, UniProt P33261); assay: Enzyme kinetics of metabolite formation in cDNA-expressed CYP2C19 supersomes
T1 construct: purchased Corning Life Sciences
Method: as §1, §2

CYP3A4 [1] = target: T2, CYP3A4 (Homo sapiens, UniProt P08684); assay: CYP screening, recombinant CYP3A4
T2 construct: purchased Corning Life Sciences
Method: DWP16001, M1, or M2 was incubated with 11 human cDNA-expressed CYP enzymes (1A1, 1A2, 2A6, 2B6, 2C8, 2C9, 2C19, 2D6, 2E1, 3A4, and 3A5) to identify the CYP enzymes involved in the metabolism of DWP16001. Reaction mixtures of 95 µL containing DWP16001 (final concentration: 5 µM), M1 or M2 (final concentration: 10 µM), and CYPs (final amount: 10 pmol) were prepared in 0.1 M potassium phosphate buffer (pH 7.4). The reaction was started by adding 5 µL of NADPH-generating system; the mixtures were incubated for 30 min at 37 °C in triplicate. Reactions were stopped by the addition of 400 µL of ice-cold ketoconazole (internal standard, 200 ng/mL) in ice-cold acetonitrile. Samples were centrifuged at 15,000× g for 8 min at 4 °C. Seventy-five microliter aliquots of the supernatants were diluted with 75 µL of deionized water and analyzed using an LC–MS/MS system.

CYP3A4 [2] = target: T2, CYP3A4; assay: Enzyme kinetics of metabolite formation in cDNA-expressed CYP3A4 supersomes
Method: as §1, §2

UGT1A9 = target: T3, UGT1A9 (Homo sapiens, UniProt O60656); assay: UGT screening, cDNA-expressed UGT1A9
T3 construct: purchased Corning Life Sciences
T3 sequence (O60656 26-530): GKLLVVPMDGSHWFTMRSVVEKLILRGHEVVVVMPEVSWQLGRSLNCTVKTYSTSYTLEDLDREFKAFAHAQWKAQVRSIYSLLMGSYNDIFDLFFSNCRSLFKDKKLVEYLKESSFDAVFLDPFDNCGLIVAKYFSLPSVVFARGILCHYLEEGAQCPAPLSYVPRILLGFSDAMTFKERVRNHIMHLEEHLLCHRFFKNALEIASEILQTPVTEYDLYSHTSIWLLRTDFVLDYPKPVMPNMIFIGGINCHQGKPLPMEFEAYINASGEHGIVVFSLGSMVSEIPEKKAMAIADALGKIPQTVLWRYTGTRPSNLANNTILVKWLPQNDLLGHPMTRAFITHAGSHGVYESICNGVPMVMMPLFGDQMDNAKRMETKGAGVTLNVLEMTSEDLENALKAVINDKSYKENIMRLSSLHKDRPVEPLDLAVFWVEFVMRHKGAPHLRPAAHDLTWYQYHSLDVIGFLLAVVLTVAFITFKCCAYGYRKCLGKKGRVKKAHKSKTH
Method: To screen for UGT enzymes responsible for glucuronidation of DWP16001, 100 μL of reaction mixtures containing 13 human cDNA-expressed UGT enzymes (1A1, 1A3, 1A4, 1A6, 1A7, 1A8, 1A9, 1A10, 2B4, 2B7, 2B10, 2B15, and 2B17) at 0.1 mg protein/mL, 5 mM UDPGA, 0.025 mg/mL alamethicin, and 25 μM DWP16001 or M1 in 50 mM Tris buffer (pH 7.4) were incubated at 37 °C for 30 min in triplicate. Reactions were stopped by adding 100 μL of ketoconazole (internal standard, 200 ng/mL) in acetonitrile, followed by vortex-mixing and centrifugation (15,000× g, 8 min, 4 °C). The supernatant (75 μL) was diluted with equal volume of 30% acetonitrile and aliquots (5 μL) were injected into an LC-MS/MS system.

[3] = CYP2C19 supersomes, kinetic model fitted

T1 sequence (P33261 whole entry): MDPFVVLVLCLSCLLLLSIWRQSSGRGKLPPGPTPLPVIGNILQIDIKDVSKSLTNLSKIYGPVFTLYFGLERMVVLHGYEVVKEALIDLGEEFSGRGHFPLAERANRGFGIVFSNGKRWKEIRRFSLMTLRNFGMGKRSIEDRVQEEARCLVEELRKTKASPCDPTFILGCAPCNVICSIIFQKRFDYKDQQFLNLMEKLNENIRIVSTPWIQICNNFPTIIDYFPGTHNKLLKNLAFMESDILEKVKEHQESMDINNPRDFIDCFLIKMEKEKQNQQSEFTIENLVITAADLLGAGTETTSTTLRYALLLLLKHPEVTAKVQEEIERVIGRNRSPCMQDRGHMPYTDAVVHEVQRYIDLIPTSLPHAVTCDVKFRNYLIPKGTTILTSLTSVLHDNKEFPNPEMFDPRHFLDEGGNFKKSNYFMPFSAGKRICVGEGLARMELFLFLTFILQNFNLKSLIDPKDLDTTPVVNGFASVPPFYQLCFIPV
T2 sequence (P08684 whole entry): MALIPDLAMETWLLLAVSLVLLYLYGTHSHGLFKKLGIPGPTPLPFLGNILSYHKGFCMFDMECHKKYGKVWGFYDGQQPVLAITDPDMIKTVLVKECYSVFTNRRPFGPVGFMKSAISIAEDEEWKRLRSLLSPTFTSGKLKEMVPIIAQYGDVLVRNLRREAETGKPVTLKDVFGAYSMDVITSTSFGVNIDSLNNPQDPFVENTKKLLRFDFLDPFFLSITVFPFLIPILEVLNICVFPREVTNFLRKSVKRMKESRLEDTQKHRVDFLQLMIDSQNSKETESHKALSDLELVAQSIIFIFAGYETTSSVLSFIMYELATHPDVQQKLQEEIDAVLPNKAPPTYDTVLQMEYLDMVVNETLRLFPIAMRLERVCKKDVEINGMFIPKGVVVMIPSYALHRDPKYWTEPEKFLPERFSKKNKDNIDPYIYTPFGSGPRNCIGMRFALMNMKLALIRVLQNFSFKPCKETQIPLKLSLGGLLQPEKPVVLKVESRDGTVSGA

M1 Formation Vmax (human liver microsomes; HLM): 980.3 pmol/min/mg protein
M1 Formation n (hill coefficient) (human liver microsomes; HLM): 0.9176
M2 Formation Vmax (human liver microsomes; HLM): 82.8 pmol/min/mg protein
M2 Formation n (hill coefficient) (human liver microsomes; HLM): 0.9773
M1 Formation Mode (human liver microsomes; HLM, kinetic model fitted): Hill
M2 Formation Mode (human liver microsomes; HLM, kinetic model fitted): Hill
M3 formation from DWP16001 in enzyme kinetic analysis (human liver microsomes; human liver microsomes): not detected
M3 formation from DWP16001 in enzyme kinetic analysis (CYP2C19; CYP2C19): not detected
M1 Formation Mode (CYP2C19; [3]): Single enzyme
M2 Formation Mode (CYP2C19; [3]): Hill
Substrate of CYP3A4 (CYP3A4 [1]): substrate
M3 formation kinetic model (CYP3A4 [2]): single enzyme kinetics
M1 Formation Mode (CYP3A4 [2]; kinetic model fitted): Hill
M2 Formation Mode (CYP3A4 [2]; kinetic model fitted): Hill
Substrate of UGT1A9 (UGT1A9): substrate
SMILES: OC[C@H]1O[C@@H](c2cc(Cc3ccc(C4CC4)cc3)c(Cl)c3c2CCO3)[C@H](O)[C@@H](O)[C@@H]1O [DWP16001, (2S,3R,4R,5S,6R)-2-(7-chloro-6-(4-cyclopropylbenzyl)-2,3-dihydrobenzofuran-4-yl)-6-(hydroxymethyl)tetrahydro-2H-pyran-3,4,5-triol]
